# Laboratory results as given in ChEMBL document CHEMBL5352406 (Eur J Med Chem, 2022).
# Legend:
# HCT-116 [1] = experiment: Antiproliferative activity against human HCT-116 cells assessed as cell growth inhibition after 72 hrs by MTT assay; assay type: functional
# SW480 = experiment: Antiproliferative activity against human SW480 cells assessed as cell growth inhibition after 72 hrs by MTT assay; assay type: functional
# A549 = experiment: Antiproliferative activity against human A549 cells assessed as cell growth inhibition after 72 hrs by MTT assay; assay type: functional
# MCF7 = experiment: Antiproliferative activity against human MCF7 cells assessed as cell growth inhibition after 72 hrs by MTT assay; assay type: functional
# [2] = target: Cyclin-dependent kinase 13/Cyclin-K (Homo sapiens) (UniProt Q14004+O75909); experiment: Inhibition of CDK13/Cyclin K (unknown origin) at 500 nM by ADP-Glo kinase assay relative to control; assay type: protein-complex assay
# [3] = target: Cyclin-dependent kinase 5/CDK5 activator 1 (Homo sapiens) (UniProt Q00535+Q15078); experiment: Inhibition of CDK5/p25 NCK (unknown origin) at 500 nM by ADP-Glo kinase assay relative to control; assay type: protein-complex assay
# [4] = target: CDK7/Cyclin H/MNAT1 (Homo sapiens) (UniProt P51946+P50613+P51948); experiment: Inhibition of CDK7/Cyclin H/MAT1 (unknown origin) at 500 nM by ADP-Glo kinase assay relative to control; assay type: protein-complex assay
# [5] = target: Cyclin-dependent kinase 4/cyclin D1 (Homo sapiens) (UniProt P11802+P24385); experiment: Inhibition of CDK4/Cyclin D1 (unknown origin) at 500 nM by ADP-Glo kinase assay relative to control; assay type: protein-complex assay
# [6] = target: CDK6/cyclin D1 (Homo sapiens) (UniProt P24385+Q00534); experiment: Inhibition of CDK6/Cyclin D1 (unknown origin) at 500 nM by ADP-Glo kinase assay relative to control; assay type: protein-complex assay
# [7] = target: CDK6/cyclin D3 (Homo sapiens) (UniProt P30281+Q00534); experiment: Inhibition of CDK6/Cyclin D3 (unknown origin) at 500 nM by ADP-Glo kinase assay relative to control; assay type: protein-complex assay
# [8] = target: Cyclin-C/Cyclin-dependent kinase 19 (Homo sapiens) (UniProt Q9BWU1+P24863); experiment: Inhibition of CDK19/Cyclin C (unknown origin) at 500 nM by ADP-Glo kinase assay relative to control; assay type: protein-complex assay
# HCT-116 [9] = experiment: Inhibition of cell migration in human HCT-116 cells after 48 hrs by Wound healing scratch assay; assay type: functional, cell-based; conditions: dose 2-18 nM
# HCT-116 [10] = experiment: Inhibition of colony formation in human HCT-116 cells treated for 24 hrs followed by replaced with fresh culture media for 10 days by Colony formation assay; assay type: functional, cell-based; conditions: dose 2-18 nM
# HCT-116 [11] = experiment: Induction of apoptosis in human HCT-116 cells assessed as viable cells at 10 nM measured after 48 hrs by Annexin V-FITC/PI assay (reference value: 88.5%); assay type: functional; conditions: read-out: Activity
# HCT-116 [12] = experiment: Induction of apoptosis in human HCT-116 cells assessed as late apoptotic cells at 10 nM measured after 48 hrs by Annexin V-FITC/PI assay (reference value: 6.06%); assay type: functional
# HCT-116 [13] = experiment: Induction of apoptosis in human HCT-116 cells assessed as necrotic cells at 10 nM measured after 48 hrs by Annexin V-FITC/PI assay (reference value: 2.31%); assay type: functional
# HCT-116 [14] = experiment: Induction of apoptosis in human HCT-116 cells assessed as viable cells at 20 nM measured after 48 hrs by Annexin V-FITC/PI assay (reference value: 88.5%); assay type: functional; conditions: read-out: Activity
# HCT-116 [15] = experiment: Induction of apoptosis in human HCT-116 cells assessed as late apoptotic cells at 20 nM measured after 48 hrs by Annexin V-FITC/PI assay (reference value: 6.06%); assay type: functional
# HCT-116 [16] = experiment: Cell cycle arrest in human HCT-116 cells assessed as accumulation of cells at S phase at 10 nM measured after 48 hrs by flow cytometry (reference value: 31.43%); assay type: functional
# HCT-116 [17] = experiment: Cell cycle arrest in human HCT-116 cells assessed as accumulation of cells at S phase at 20 nM measured after 48 hrs by flow cytometry (reference value: 31.43%); assay type: functional
# [18] = Acute toxicity in po dosed Kunming mouse assessed as survival measured for 2 weeks; assay type: organism-based; conditions: in vivo
# [19] = Acute toxicity in Kunming mouse assessed as survival at 20 mg/kg, po measured for 2 weeks; assay type: organism-based; conditions: in vivo
# [20] = Acute toxicity in Kunming mouse assessed as survival at 30 mg/kg, po measured for 2 weeks; assay type: organism-based; conditions: in vivo
# [21] = Acute toxicity in Kunming mouse assessed as survival at 46 mg/kg, po measured for 2 weeks; assay type: organism-based; conditions: in vivo
# [22] = Acute toxicity in Kunming mouse assessed as survival at 69 mg/kg, po measured for 2 weeks; assay type: organism-based; conditions: in vivo
# [23] = Acute toxicity in Kunming mouse assessed as survival at 105 mg/kg, po measured for 2 weeks; assay type: organism-based; conditions: in vivo
# [24] = Acute toxicity in Kunming mouse assessed as survival at 159 mg/kg, po measured for 2 weeks; assay type: organism-based; conditions: in vivo
# [25] = Acute toxicity in Kunming mouse assessed as body weight change at 20 to 105 mg/kg, po measured for 2 weeks; assay type: organism-based; conditions: in vivo, 336 h, dose 20-105 mg/kg
# [26] = Acute toxicity in Kunming mouse assessed as behavior change at 20 to 105 mg/kg, po measured for 2 weeks; assay type: organism-based; conditions: in vivo, 336 h, dose 20-105 mg/kg
# [27] = Half life in Sprague-Dawley rat at 2 mg/kg, iv; assay type: ADME, organism-based; conditions: in vivo
# [28] = Tmax in Sprague-Dawley rat at 20 mg/kg, po; assay type: ADME, organism-based; conditions: in vivo
# [29] = Cmax in Sprague-Dawley rat at 2 mg/kg, iv; assay type: ADME, organism-based; set-up: dose 2 mg/kg, route iv; conditions: in vivo
# [30] = AUC (0 to t) in Sprague-Dawley rat at 2 mg/kg, iv; assay type: ADME, organism-based; set-up: dose 2 mg/kg, route iv; conditions: in vivo
# [31] = AUC (0 to infinity) in Sprague-Dawley rat at 2 mg/kg, iv; assay type: ADME, organism-based; set-up: dose 2 mg/kg, route iv; conditions: in vivo
# [32] = AUC (0 to infinity) in Sprague-Dawley rat at 20 mg/kg, po; assay type: ADME, organism-based; set-up: dose 20 mg/kg, route po; conditions: in vivo
# [33] = Clearance in Sprague-Dawley rat at 2 mg/kg, iv; assay type: ADME, organism-based; conditions: in vivo
# [34] = Oral bioavailability in Sprague-Dawley rat at 20 mg/kg; assay type: ADME, organism-based; conditions: in vivo
# HCT-116 [35] = experiment: Antitumor activity against human HCT-116 cells xenografted in BALB/cA-nu mouse tumor model assessed as tumor volume growth inhibition at 10 mg/kg, intragastric administration for 21 days relative to control; assay type: functional; conditions: HCT-116, 504 h, route ig, time 21 day, read-out: GI
# HCT-116 [36] = experiment: Antitumor activity against human HCT-116 cells xenografted in BALB/cA-nu mouse tumor model assessed as tumor weight growth inhibition at 10 mg/kg, intragastric administration for 21 days relative to control; assay type: functional; conditions: HCT-116, 504 h, route ig, time 21 day, read-out: TGI
# [37] = Toxicity in BALB/cA-nu mouse xenografted with human HCT116 cells assessed as body weight changes at 10 mg/kg, intragastric administration for 21 days; assay type: organism-based, HCT-116; conditions: in vivo, po, 504 h, time 21 day
# [38] = Toxicity in BALB/cA-nu mouse xenografted with human HCT116 cells assessed as liver injury by measuring ALT level at 10 mg/kg, intragastric administration for 21 days; assay type: organism-based, HCT-116; conditions: in vivo, po, 504 h, time 21 day
# [39] = target: CDK1/Cyclin E (Homo sapiens) (UniProt P06493+P24864); conditions: dose 500.0 nM
# Sequence of CDK1/Cyclin E (Homo sapiens) (P06493 whole entry, looked up): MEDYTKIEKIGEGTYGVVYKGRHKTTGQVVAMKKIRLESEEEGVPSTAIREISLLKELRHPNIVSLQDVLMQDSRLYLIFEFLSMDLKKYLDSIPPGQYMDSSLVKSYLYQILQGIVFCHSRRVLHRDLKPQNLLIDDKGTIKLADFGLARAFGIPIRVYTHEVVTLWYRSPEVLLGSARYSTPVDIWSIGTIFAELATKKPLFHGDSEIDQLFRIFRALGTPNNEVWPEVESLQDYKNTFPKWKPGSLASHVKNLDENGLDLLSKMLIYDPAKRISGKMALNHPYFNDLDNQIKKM
# Sequence of CDK1/Cyclin E (Homo sapiens) (P24864 whole entry, looked up): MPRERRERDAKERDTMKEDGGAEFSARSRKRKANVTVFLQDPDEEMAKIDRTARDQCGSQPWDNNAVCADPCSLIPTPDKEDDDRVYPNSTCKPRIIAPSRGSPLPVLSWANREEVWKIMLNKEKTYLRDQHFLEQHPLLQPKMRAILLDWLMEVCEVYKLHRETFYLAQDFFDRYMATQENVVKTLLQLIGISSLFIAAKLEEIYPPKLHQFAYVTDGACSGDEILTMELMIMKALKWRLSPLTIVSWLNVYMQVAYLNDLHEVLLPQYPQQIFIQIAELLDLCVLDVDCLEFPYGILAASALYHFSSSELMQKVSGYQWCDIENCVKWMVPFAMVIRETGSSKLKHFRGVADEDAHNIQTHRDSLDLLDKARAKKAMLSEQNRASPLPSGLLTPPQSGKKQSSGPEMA
# Description: Inhibition of CDK1/Cyclin E1 (unknown origin) at 500 nM by ADP-Glo kinase assay relative to control
# Sequence of Cyclin-dependent kinase 13/Cyclin-K (Homo sapiens) (O75909 whole entry, looked up): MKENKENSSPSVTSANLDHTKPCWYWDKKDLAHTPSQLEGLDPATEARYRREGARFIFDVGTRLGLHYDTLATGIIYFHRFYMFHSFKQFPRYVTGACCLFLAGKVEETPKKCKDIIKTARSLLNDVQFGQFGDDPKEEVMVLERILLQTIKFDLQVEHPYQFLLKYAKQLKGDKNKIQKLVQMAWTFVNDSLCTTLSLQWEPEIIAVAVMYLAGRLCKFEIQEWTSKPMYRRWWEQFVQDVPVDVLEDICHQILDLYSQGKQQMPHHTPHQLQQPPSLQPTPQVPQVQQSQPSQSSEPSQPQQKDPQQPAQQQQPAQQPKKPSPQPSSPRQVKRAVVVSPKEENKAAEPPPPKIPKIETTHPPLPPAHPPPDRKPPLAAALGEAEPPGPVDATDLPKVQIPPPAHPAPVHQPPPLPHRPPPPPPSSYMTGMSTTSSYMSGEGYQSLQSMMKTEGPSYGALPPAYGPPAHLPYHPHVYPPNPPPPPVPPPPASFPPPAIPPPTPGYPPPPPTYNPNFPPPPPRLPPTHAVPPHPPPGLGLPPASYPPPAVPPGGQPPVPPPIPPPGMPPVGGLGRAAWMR
# Sequence of Cyclin-dependent kinase 13/Cyclin-K (Homo sapiens) (Q14004 whole entry, looked up): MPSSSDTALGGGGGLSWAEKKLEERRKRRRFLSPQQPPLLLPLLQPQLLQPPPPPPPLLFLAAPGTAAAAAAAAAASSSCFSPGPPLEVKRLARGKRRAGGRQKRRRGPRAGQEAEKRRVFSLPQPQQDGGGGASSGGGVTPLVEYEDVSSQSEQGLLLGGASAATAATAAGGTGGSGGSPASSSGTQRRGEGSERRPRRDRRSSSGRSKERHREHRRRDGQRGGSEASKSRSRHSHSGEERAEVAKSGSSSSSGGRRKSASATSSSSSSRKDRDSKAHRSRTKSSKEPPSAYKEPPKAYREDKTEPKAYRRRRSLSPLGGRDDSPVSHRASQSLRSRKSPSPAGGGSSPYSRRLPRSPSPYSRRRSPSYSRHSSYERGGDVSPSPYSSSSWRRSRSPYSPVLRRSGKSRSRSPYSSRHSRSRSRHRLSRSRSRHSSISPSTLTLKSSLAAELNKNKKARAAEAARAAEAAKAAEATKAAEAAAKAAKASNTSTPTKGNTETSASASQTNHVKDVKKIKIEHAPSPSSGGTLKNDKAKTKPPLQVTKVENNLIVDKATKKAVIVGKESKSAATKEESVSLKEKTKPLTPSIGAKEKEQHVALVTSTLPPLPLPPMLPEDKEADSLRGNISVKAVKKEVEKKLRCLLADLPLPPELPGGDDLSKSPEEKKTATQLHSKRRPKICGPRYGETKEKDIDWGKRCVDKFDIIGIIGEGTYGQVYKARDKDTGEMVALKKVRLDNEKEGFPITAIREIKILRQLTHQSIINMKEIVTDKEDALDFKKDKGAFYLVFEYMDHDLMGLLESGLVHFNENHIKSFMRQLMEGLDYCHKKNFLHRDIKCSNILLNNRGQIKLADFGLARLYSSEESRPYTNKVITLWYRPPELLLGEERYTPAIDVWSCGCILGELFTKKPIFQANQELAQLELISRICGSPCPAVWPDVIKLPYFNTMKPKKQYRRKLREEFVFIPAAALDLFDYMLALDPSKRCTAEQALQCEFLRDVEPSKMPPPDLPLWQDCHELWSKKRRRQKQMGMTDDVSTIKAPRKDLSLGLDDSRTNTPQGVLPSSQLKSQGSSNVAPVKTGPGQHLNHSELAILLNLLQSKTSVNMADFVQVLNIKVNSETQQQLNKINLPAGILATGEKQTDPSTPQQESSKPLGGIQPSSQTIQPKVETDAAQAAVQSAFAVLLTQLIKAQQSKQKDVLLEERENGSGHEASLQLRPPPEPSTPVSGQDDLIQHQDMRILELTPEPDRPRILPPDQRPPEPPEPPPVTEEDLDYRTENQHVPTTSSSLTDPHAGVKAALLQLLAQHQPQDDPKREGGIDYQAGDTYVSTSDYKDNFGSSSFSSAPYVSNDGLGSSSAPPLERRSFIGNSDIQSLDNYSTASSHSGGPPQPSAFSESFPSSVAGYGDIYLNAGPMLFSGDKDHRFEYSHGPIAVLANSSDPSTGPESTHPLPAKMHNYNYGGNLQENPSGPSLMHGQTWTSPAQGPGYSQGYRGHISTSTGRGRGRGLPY
# Sequence of Cyclin-dependent kinase 5/CDK5 activator 1 (Homo sapiens) (Q00535 whole entry): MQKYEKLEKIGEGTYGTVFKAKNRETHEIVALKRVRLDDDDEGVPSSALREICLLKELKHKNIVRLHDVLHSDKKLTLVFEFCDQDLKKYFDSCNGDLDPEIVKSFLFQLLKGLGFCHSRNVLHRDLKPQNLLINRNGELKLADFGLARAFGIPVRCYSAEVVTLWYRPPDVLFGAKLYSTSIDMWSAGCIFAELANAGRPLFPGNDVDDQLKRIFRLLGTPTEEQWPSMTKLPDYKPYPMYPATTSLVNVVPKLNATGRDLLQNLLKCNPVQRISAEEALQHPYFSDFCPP
# Sequence of Cyclin-dependent kinase 5/CDK5 activator 1 (Homo sapiens) (Q15078 99-307 partner limits assumed): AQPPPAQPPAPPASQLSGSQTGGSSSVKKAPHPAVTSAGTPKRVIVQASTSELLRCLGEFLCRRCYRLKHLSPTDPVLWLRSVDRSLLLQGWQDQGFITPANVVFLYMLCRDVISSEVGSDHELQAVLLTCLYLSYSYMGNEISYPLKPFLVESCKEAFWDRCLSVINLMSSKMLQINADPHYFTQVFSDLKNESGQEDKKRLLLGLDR
smiles,measurement,setting,value
Cl.N[C@H]1CCN(c2c3c(nc4ccc(-c5ccnc(NC(=O)C6CC6)n5)cc24)CCCCC3)C1,GI50,HCT-116 [1],6 nM
same,GI50,SW480,13 nM
same,GI50,A549,9 nM
same,GI50,MCF7,6 nM
same,inhibition,[2],80.9%
same,inhibition,[3],64.5%
same,inhibition,[4],60.4%
same,inhibition,[5],31.6%
same,inhibition,[6],22.1%
same,inhibition,[7],16.6%
same,inhibition,[8],12.9%
same,inhibition,HCT-116 [9],Dose-Dependent Effect
same,inhibition,HCT-116 [10],Dose-Dependent Effect
same,viability at 0.01 µM,HCT-116 [11],74%
same,Activity,HCT-116 [12],~7.47%
same,Activity,HCT-116 [13],1.48%
same,viability at 0.02 µM,HCT-116 [14],52.5%
same,Activity,HCT-116 [15],13.6%
same,Activity,HCT-116 [16],42.75%
same,Activity,HCT-116 [17],49.38%
same,LD50 at 336 h,[18],104 mg/kg
same,survival at 336 h,[19],100%
same,survival at 336 h,[20],100%
same,survival at 336 h,[21],100%
same,survival at 336 h,[22],100%
same,survival at 336 h,[23],50%
same,survival at 336 h,[24],0%
same,Activity,[25],Non-Toxic
same,Activity,[26],Non-Toxic
same,half-life,[27],27.7 min
same,Tmax,[28],60 min
same,Cmax,[29],206 ng/mL
same,AUC(0-t),[30],110 ng·h/mL
same,AUC(0-inf),[31],115 ng·h/mL
same,AUC(0-inf),[32],316 ng·h/mL
same,clearance,[33],312 mL/min/kg
same,bioavailability,[34],27.5%
same,inhibition in vivo at 10 mg/kg,HCT-116 [35],47.7%
same,inhibition in vivo at 10 mg/kg,HCT-116 [36],62.4%
same,Activity,[37],Non-Toxic
same,Activity,[38],Non-Toxic
same,inhibition,[39],48.6%
